Results: patent US10227362B2 (priority 2015, dated 2019)
≈ marks a conversion by molar mass, not a printed value.

Legend:
Format in all cases: cell-based
[1] = test system: Mycobacterium tuberculosis H37Rv strain; assay: In vitro MIC against M. tuberculosis H37Rv strain (MABA, Alamar Blue)
Experimental: Part I: The in vitro efficacy of anti-Mycobacterium tuberculosis compounds was tested using H37Rv strain.
On the day of the test, the compound was dissolved in pure DMSO (Sigma 276855-2L) to a concentration of 10 mg/mL which was used as the mother liquor of the compound. 30 μL of DMSO was added to wells of column 2 to 11 s of the v-bottom 96-well plates (Axygen-wipp02280). 30 μL of the mother liquor of the compound was added to the well of column 2, after mixing, 30 μL was taken from the well of column 2 and added to the well of column 3, and then pipetted and mixed. The operation was taken to column 10. Column 11 was free of medicine and contained only 30 μL of DMSO. This was the “motherplate” of the compound. From column 2 to 11, the corresponding concentration of the compound was 5, 2.5, 1.25, 0.625, 0.3125, 0.156, 0.078, 0.039, 0.02, 0 mg/mL. […] A flat bottom 96-well plate (Greiner 655090) was used as a “daughterplate”. 98 μL of 7H9 (Sigma M0178) medium was added to the wells of all daughterplates. 2 μL of compound was extracted from the motherboard and added to the corresponding daughter plate. Line A and H, column 1 and 12 of the daughterplate contained only 7H9 medium.
The H37Rv strain in the glycerol cryovial was inoculated into 7H9 medium containing 0.05% Tween 80 and cultured for 4 weeks at 37° C. in a shaker with 200 rpm. The bacterial liquid was washed twice with 7H9 medium containing 0.05% Tween 80 and resuspended in the same medium. The absorbance of the bacteria liquid was adjusted to OD550=0.4-0.5 using the same medium. The bacteria liquid was sub-packed in microcentrifuge tubes and stored at −80° C. Storage time was no more than 1 month. On the day of the test, the packaged bacteria liquid would be […]. The bacteria liquid was diluted 20 times and then diluted 50 times with 7H9 medium, and a total of 1000 times dilution. The bacteria liquid would be used to inoculate on the daughterplate. 100 μL of bacterial liquid was inoculated in each well of the daughterboard, 100 μL 7H9 medium was added to column 12 and without bacteria liquid.
The test daughterplate was placed in an incubator at 37° C. and the humidity was maintained at >80%. A week later, 12.5 μL of 7H9 medium containing 20% Tween 80 and 20 μL of Alamar Blue (Invitrogen DAL1100) were added to the well of a column 1 containing bacteria and the well of a column 12 without bacteria every day, and then continue to incubate for 24 hours and observed. When the added Alamar Blue was reduced to pink in 24 hours by the bacteria liquid in the well of column 1, the 7H9 medium containing 20% Tween 80 and Alamar Blue were added to all wells on the test plate and the fluorescence values were measured after incubation for 24 hours at 37° C.

Vero Cell = assay: Vero cell cytotoxicity; conditions: Chlorocebus sabaeus, Vero cells
[2] = test system: Mycobacterium bovis BCG strain TMC1019 (ATCC35737); assay: microbe, parasite or virus in culture; conditions: Mycobacterium tuberculosis variant bovis BCG, 24 h, read-out: M. bovis ATCC35737 (ug/mL)
M. tuberculosis H37R = assay: M. tuberculosis LORA MIC; conditions: Mycobacterium tuberculosis, read-out: M. tuberculosis H37R LORA (MIC) (ug/mL)

Compound	MIC [1] [µg/mL]	IC50 (Vero Cell) [µg/mL]	MIC [2] [µg/mL]	MIC (M. tuberculosis H37R) [µg/mL]
C[C@]1(CN2CCc3sc(-c4ccc(F)cc4)nc3C2)Cn2cc([N+](=O)[O-])nc2O1 [Compound 67, (S)-2-((2-(4-Fluorophenyl)-6,7-dihydrothiazolo[4,5-c]pyridin-5(4H)-yl)methyl)-2-methyl-6-nitro-2,3-dihydroimidazo[2,1-b]oxazole]	< 1	> 32	< 1	
C[C@]1(CN2Cc3nc(-c4cccc(F)c4)sc3C2)Cn2cc([N+](=O)[O-])nc2O1 [Compound 70, (S)-2-((2-(3-Fluorophenyl)-4H-pyrrolo[3,4-d]thiazol-5(6H)-yl)methyl)-2-methyl-6-nitro-2,3-dihydroimidazo[2,1-b]oxazole]	< 1	> 32	< 1	
CN(c1ccc(F)cc1)c1nc2c(s1)CN(C[C@@]1(C)Cn3cc([N+](=O)[O-])nc3O1)C2 [Compound 85, (S)—N-(4-Fluorophenyl)-N-methyl-5-((2-methyl-6-nitro-2,3-dihydroimidazo[2,1-b]oxazol-2-yl)methyl)-5,6-dihydro-4H-pyrrolo[3,4-d]thiazol-2-amine]	< 1	> 32	< 1	
C[C@]1(CN2CCc3nc(-c4ccc(C(F)(F)F)cc4)ccc3C2)Cn2cc([N+](=O)[O-])nc2O1 [Compound 10, (S)-2-Methyl-6-nitro-2-((2-(4-(trifluoromethyl)phenyl)-7,8-dihydro-1,6-naphthyridin-6(5H)-yl)methyl)-2,3-dihydroimidazo[2,1-b]oxazole]	< 1	> 32	< 1	
C[C@]1(CN2Cc3nc(-c4ccc(F)c(F)c4)sc3C2)Cn2cc([N+](=O)[O-])nc2O1 [Compound 71, (S)-2-((2-(3,4-Difluorophenyl)-4H-pyrrolo[3,4-d]thiazol-5(6H)-yl)methyl)-2-methyl-6-nitro-2,3-dihydroimidazo[2,1-b]oxazole]	< 1	> 32	< 1	
C[C@]1(CN2CCc3nc(-c4ccc(F)cc4F)ccc3C2)Cn2cc([N+](=O)[O-])nc2O1 [Compound 13, (S)-2-((2-(2,4-Difluorophenyl)-7,8-dihydro-1,6-naphthyridin-6(5H)-yl)methyl)-2-methyl-6-nitro-2,3-dihydroimidazo[2,1-b]oxazole]	< 1	> 32	< 1	1 to 32 (≈ 2.34 to 74.9 µM)
C[C@]1(CN2CCc3nc(-c4cccc(F)c4)ccc3C2)Cn2cc([N+](=O)[O-])nc2O1 [Compound 6, (S)-2-((2-(3-Fluorophenyl)-7,8-dihydro-1,6-naphthyridin-6(5H)-yl)methyl)-2-methyl-6-nitro-2,3-dihydroimidazo[2,1-b]oxazole]	< 1	> 32	< 1	1 to 32 (≈ 2.44 to 78.2 µM)
C[C@]1(CN2Cc3nc(-c4ccc(F)cc4F)sc3C2)Cn2cc([N+](=O)[O-])nc2O1 [Compound 78, (S)-2-((2-(2,4-Difluorophenyl)-4H-pyrrolo[3,4-d]thiazol-5(6H)-yl)methyl)-2-methyl-6-nitro-2,3-dihydroimidazo[2,1-b]oxazole]	< 1	> 32	< 1	
C[C@]1(CN2CCCc3nc(-c4ccc(F)cc4)ccc3C2)Cn2cc([N+](=O)[O-])nc2O1 [Compound 96, (S)-2-((2-(4-Fluorophenyl)-8,9-dihydro-5H-pyrido[3,2-c]azepin-6(7H)-yl)methyl)-2-methyl-6-nitro-2,3-dihydroimidazo[2,1-b]oxazole]	< 1	> 32	< 1	1 to 32 (≈ 2.36 to 75.6 µM)
C[C@]1(CN2CCc3nc(-c4ccc(F)cc4)oc3C2)Cn2cc([N+](=O)[O-])nc2O1 [Compound 61, (S)-2-(4-Fluorophenyl)-5-((2-methyl-6-nitro-2,3-dihydroimidazo[2,1-b]oxazol-2-yl)methyl)-4,5,6,7-tetrahydrooxazolo[5,4-c]pyridine]	< 1	> 32	< 1	1 to 32 (≈ 2.5 to 80.1 µM)
C[C@]1(CN2CCc3nc(-c4ccc(F)c(F)c4)ccc3C2)Cn2cc([N+](=O)[O-])nc2O1 [Compound 12, (S)-2-((2-(3,4-Difluorophenyl)-7,8-dihydro-1,6-naphthyridin-6(5H)-yl)methyl)-2-methyl-6-nitro-2,3-dihydroimidazo[2,1-b]oxazole]	< 1	> 32	< 1	1 to 32 (≈ 2.34 to 74.9 µM)
C[C@]1(CN2Cc3nc(-c4ccc(F)cc4Cl)sc3C2)Cn2cc([N+](=O)[O-])nc2O1 [Compound 77, (S)-2-((2-(2-chloro-4-fluorophenyl)-4H-pyrrolo[3,4-d]thiazol-5(6H)-yl)methyl)-2-methyl-6-nitro-2,3-dihydroimidazo[2,1-b]oxazole]	< 1	> 32	< 1	
C[C@]1(CN2CCc3nc(-c4ccccc4F)ccc3C2)Cn2cc([N+](=O)[O-])nc2O1 [Compound 5, (S)-2-((2-(2-Fluorophenyl)-7,8-dihydro-1,6-naphthyridin-6(5H)-yl)methyl)-2-methyl-6-nitro-2,3-dihydroimidazo[2,1-b]oxazole]	< 1	> 32	< 1	1 to 32 (≈ 2.44 to 78.2 µM)
C[C@]1(CN2CCc3nc(-c4cc(F)cc(F)c4)ccc3C2)Cn2cc([N+](=O)[O-])nc2O1 [Compound 14, (S)-2-((2-(3,5-Difluorophenyl)-7,8-dihydro-1,6-naphthyridin-6(5H)-yl)methyl)-2-methyl-6-nitro-2,3-dihydroimidazo[2,1-b]oxazole]	< 1	> 32	< 1	1 to 32 (≈ 2.34 to 74.9 µM)
C[C@]1(CN2CCc3nc(-c4ccco4)ccc3C2)Cn2cc([N+](=O)[O-])nc2O1 [Compound 25, (S)-2-((2-(Furan-2-yl)-7,8-dihydro-1,6-naphthyridin-6(5H)-yl)methyl)-2-methyl-6-nitro-2,3-dihydroimidazo[2,1-b]oxazole]	< 1	> 32	< 1	1 to 32 (≈ 2.62 to 83.9 µM)
C[C@]1(CN2CCc3nc(-c4ccc(Cl)c(F)c4)ccc3C2)Cn2cc([N+](=O)[O-])nc2O1 [Compound 20, (S)-2-((2-(4-Chloro-3-fluorophenyl)-7,8-dihydro-1,6-naphthyridin-6(5H)-yl)methyl)-2-methyl-6-nitro-2,3-dihydroimidazo[2,1-b]oxazole]	< 1	> 32	< 1	1 to 32 (≈ 2.25 to 72.1 µM)
